Test results taken from ChEMBL document CHEMBL1124041, “Conformational and steric aspects of the inhibition of phenylethanolamine N-methyltransferase by benzylamines” (J Med Chem, 1988).

Experiments:
[1] = target: T1, Phenylethanolamine N-methyltransferase (Bos taurus) (UniProt P10938); assay: Molar pI50 value for phenylethanolamine N-methyl-transferase (PNMT) inhibition
T1 sequence (whole entry): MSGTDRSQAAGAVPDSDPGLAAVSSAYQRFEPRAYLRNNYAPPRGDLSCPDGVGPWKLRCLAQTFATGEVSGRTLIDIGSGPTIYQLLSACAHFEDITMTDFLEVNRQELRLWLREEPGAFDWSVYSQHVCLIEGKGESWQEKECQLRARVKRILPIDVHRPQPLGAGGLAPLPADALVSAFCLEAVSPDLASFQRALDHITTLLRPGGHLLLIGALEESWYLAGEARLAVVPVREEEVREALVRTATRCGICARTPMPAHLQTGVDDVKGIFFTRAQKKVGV

[2] = target: T1, Phenylethanolamine N-methyltransferase (Bos taurus); assay: Acid dissociation constant of phenylethanolamine N-methyl-transferase (PNMT) inhibition
[3] = target: T2, Phenylethanolamine N-methyltransferase (Bos taurus, UniProt P10938); assay: Inhibition of phenylethanolamine N-methyl-transferase (PNMT)
T2 sequence (P10938 whole entry): T1 sequence (whole entry)

Compound	pI50 [1]	pKa [2]	Ki [3]
Cc1cccc(CN)c1	3.82 M	9.45	–
c1ccc2c(c1)C1CC[C@H]2NC1	–	–	> 2000 µM
NCc1cccc(Cl)c1Cl	–	7.35	–
NCc1cccc(Cl)c1	5.07 M	9.01	–
c1ccc2c(c1)C1CC[C@H]2N1	–	–	> 2000 µM
NCc1cccc(Br)c1	5.17 M	8.98	–
CC1Cc2ccccc2CN1 (configuration not stated)	–	–	3 µM
NCc1ccc(Cl)cc1	4.07 M	9.14	–
c1cc2c3c(c1)CC[C@@H]3CCC2	–	–	52 µM
NCc1ccc(F)cc1	3.17 M	9.3	–
NCc1cccc(F)c1	4 M	9.04	–
Cc1ccc(CN)cc1	3.16 M	9.54	–
c1ccc2c(c1)CC1CC[C@H]2N1	–	–	153 µM
NCc1ccccc1	–	9.38	–
NCc1ccc(Br)cc1	4.37 M	9.13	–
COc1ccc(CN)cc1	2.78 M	9.51	–
N[C@@H]1CC2CCC1c1ccccc12 (some centres not stated)	–	–	> 1000 µM
NC1CC2C[C@@H]1c1ccccc12 (some centres not stated)	–	–	479 µM
